This is an account of results in ChEMBL document CHEMBL1127974, “Design, synthesis, and activity of conformationally-constrained macrocyclic peptide-based inhibitors of HIV protease” (Bioorg Med Chem Lett, 1994).

Broadly, the IC50 is the midpoint of a concentration-inhibition curve. Low values mean greater potency in that assay, high ones weaker potency in that assay. For orientation: EC50 means the concentration giving half of the maximal effect.

In one experiment the target is T1, Human immunodeficiency virus type 1 protease (Human immunodeficiency virus 1, UniProt Q72874). The experiment can be described thus: In vitro inhibition HIV-1 IIIB protease.
Settings: not given
As to `CC(C)(C)NC(=O)[C@@H]1CCCN1C[C@@H](O)[C@@H]1Cc2ccc(cc2)OCCOc2cc3ccccc3cc2C(=O)N[C@@H](CC(N)=O)C(=O)N1`, half-maximal inhibition (IC50) required 450 nM.

Take `CC(C)(C)NC(=O)[C@@H]1CCCN1C[C@@H](O)[C@@H]1Cc2ccc(cc2)OCCCCOc2cc3ccccc3cc2C(=O)N[C@@H](CC(N)=O)C(=O)N1`: the IC50 worked out at 900 nM.

`CC(C)[C@@H]1NC(=O)/C=C\CCCCCOc2ccc(cc2)C[C@@H]([C@H](O)CN2CC3CCCCC3C[C@H]2C(=O)NC(C)(C)C)NC1=O` (stereo partly drawn): the midpoint of inhibition, the IC50, lay at 25 nM.

In the case of `CC(C)(C)NC(=O)[C@@H]1CCCN1C[C@@H](O)[C@@H]1Cc2ccc(cc2)OCCCOc2cc3ccccc3cc2C(=O)N[C@@H](CC(N)=O)C(=O)N1`, half-maximal inhibition (IC50) required 400 nM.

Compound `CC(C)(C)NC(=O)[C@@H]1CCCN1C[C@H](O)[C@@H]1Cc2ccc(cc2)OCCCOc2cc3ccccc3cc2C(=O)N[C@@H](CC(N)=O)C(=O)N1` registered an IC50 of 90000 nM.

Compound `CCCCCCC(=O)N[C@H](C(=O)N[C@@H](Cc1ccccc1)[C@H](O)CN1CC2CCCCC2C[C@H]1C(=O)NC(C)(C)C)C(C)C` (stereo partly drawn) returned an IC50 of 6 nM.

Compound `CC(C)[C@@H]1NC(=O)c2cc3ccccc3cc2OCCCOc2ccc(cc2)C[C@@H]([C@H](O)CN2CC3CCCCC3C[C@H]2C(=O)NC(C)(C)C)NC1=O` (stereo partly drawn) had an IC50 of 5.5 nM.

Compound `CC(C)[C@@H]1NC(=O)/C=C\CCCOc2ccc(cc2)C[C@@H]([C@H](O)CN2CC3CCCCC3C[C@H]2C(=O)NC(C)(C)C)NC1=O` (stereo partly drawn) showed an IC50 of 7.3 nM.

Regarding `CC(C)[C@@H]1NC(=O)c2ccccc2OCCCOc2ccc(cc2)C[C@@H]([C@H](O)CN2CC3CCCCC3C[C@H]2C(=O)NC(C)(C)C)NC1=O` (stereo partly drawn), the IC50 turned out to be 8 nM.

Compound `CC(C)(C)NC(=O)[C@@H]1C[C@@H]2CCCC[C@@H]2CN1C[C@@H](O)[C@@H]1Cc2ccc(cc2)OCCCCOc2cc3ccccc3cc2C(=O)N[C@@H](CC(N)=O)C(=O)N1` gave an IC50 of 88 nM.

Compound `CC(C)[C@@H]1NC(=O)CCCCCCCOc2ccc(cc2)C[C@@H]([C@H](O)CN2CC3CCCCC3C[C@H]2C(=O)NC(C)(C)C)NC1=O` (stereo partly drawn) returned an IC50 of 3.4 nM.

Turning to `CC(C)(C)NC(=O)[C@@H]1C[C@@H]2CCCC[C@@H]2CN1C[C@@H](O)[C@@H]1Cc2ccc(cc2)OCCOc2cc3ccccc3cc2C(=O)N[C@@H](CC(N)=O)C(=O)N1`, the IC50 was found to be 13 nM.

Turning to `CC(C)[C@@H]1NC(=O)CCCCCOc2ccc(cc2)C[C@@H]([C@H](O)CN2CC3CCCCC3C[C@H]2C(=O)NC(C)(C)C)NC1=O` (stereo partly drawn), the IC50 amounted to 1.5 nM.

The compound `CC(C)[C@@H]1NC(=O)CCCCCCOc2ccc(cc2)C[C@@H]([C@H](O)CN2CC3CCCCC3C[C@H]2C(=O)NC(C)(C)C)NC1=O` (stereo partly drawn) registered an IC50 of 1 nM.

For `CC(C)(C)NC(=O)[C@@H]1C[C@@H]2CCCC[C@@H]2CN1C[C@@H](O)[C@@H]1Cc2ccc(cc2)OCCCOc2cc3ccccc3cc2C(=O)N[C@@H](CC(N)=O)C(=O)N1`, the IC50 is 10 nM.

`CC(C)[C@H](NC(=O)c1ccc2ccccc2c1)C(=O)N[C@@H](Cc1ccccc1)[C@H](O)CN1CC2CCCCC2C[C@H]1C(=O)NC(C)(C)C` (stereo partly drawn): the midpoint of inhibition, the IC50, lay at 0.9 nM.

`CC(=O)N[C@H](C(=O)N[C@@H](Cc1ccccc1)[C@H](O)CN1CC2CCCCC2C[C@H]1C(=O)NC(C)(C)C)C(C)C` (stereo partly drawn) showed an IC50 of 3 nM.

The next experiment concerns the target T1, Human immunodeficiency virus type 1 protease. Description: In vitro inhibitory activity of compound against HIV protease from BRU (IIIB) strain of HIV- 1 virus was determined.
Settings: not given
`CC(C)[C@@H]1NC(=O)/C=C\CCCCOc2ccc(cc2)C[C@@H]([C@H](O)CN2CC3CCCCC3C[C@H]2C(=O)NC(C)(C)C)NC1=O` (stereo partly drawn) came in with an IC50 of 9 nM.

The next experiment relates to MT2. The experiment can be described thus: Effective concentration against HIV infected MT-2 cell line. It is filed as functional, cell-based. The conditions noted are these: Homo sapiens.
Compound `CC(C)(C)NC(=O)[C@@H]1C[C@@H]2CCCC[C@@H]2CN1C[C@@H](O)[C@H](Cc1ccccc1)NC(=O)[C@H](CC(N)=O)NC(=O)c1ccc2ccccc2n1` had an EC50 of 5 nM.

On to `CC(C)[C@@H]1NC(=O)/C=C\CCCCCOc2ccc(cc2)C[C@@H]([C@H](O)CN2CC3CCCCC3C[C@H]2C(=O)NC(C)(C)C)NC1=O` (stereo partly drawn), for which the response was half-maximal at 216 nM (EC50).

With `CCCCCCC(=O)N[C@H](C(=O)N[C@@H](Cc1ccccc1)[C@H](O)CN1CC2CCCCC2C[C@H]1C(=O)NC(C)(C)C)C(C)C` (stereo partly drawn), the EC50 came to 378 nM.

`CC(C)[C@@H]1NC(=O)c2cc3ccccc3cc2OCCCOc2ccc(cc2)C[C@@H]([C@H](O)CN2CC3CCCCC3C[C@H]2C(=O)NC(C)(C)C)NC1=O` (stereo partly drawn) gave a 50% effective concentration (EC50) of 17 nM.

`CC(C)[C@@H]1NC(=O)/C=C\CCCOc2ccc(cc2)C[C@@H]([C@H](O)CN2CC3CCCCC3C[C@H]2C(=O)NC(C)(C)C)NC1=O` (stereo partly drawn) yielded an EC50 of 36 nM.

Turning to `CC(C)[C@@H]1NC(=O)c2ccccc2OCCCOc2ccc(cc2)C[C@@H]([C@H](O)CN2CC3CCCCC3C[C@H]2C(=O)NC(C)(C)C)NC1=O` (stereo partly drawn), the EC50 stood at 20 nM.

For `CC(C)(C)NC(=O)[C@@H]1C[C@@H]2CCCC[C@@H]2CN1C[C@@H](O)[C@@H]1Cc2ccc(cc2)OCCCCOc2cc3ccccc3cc2C(=O)N[C@@H](CC(N)=O)C(=O)N1`, the EC50 was 315 nM.

Regarding `CC(C)[C@@H]1NC(=O)CCCCCCCOc2ccc(cc2)C[C@@H]([C@H](O)CN2CC3CCCCC3C[C@H]2C(=O)NC(C)(C)C)NC1=O` (stereo partly drawn), the EC50 came to 26 nM.

Turning to `CC(C)[C@@H]1NC(=O)/C=C\CCCCOc2ccc(cc2)C[C@@H]([C@H](O)CN2CC3CCCCC3C[C@H]2C(=O)NC(C)(C)C)NC1=O` (stereo partly drawn), the EC50 was 31 nM.

On to `CC(C)(C)NC(=O)[C@@H]1C[C@@H]2CCCC[C@@H]2CN1C[C@@H](O)[C@@H]1Cc2ccc(cc2)OCCOc2cc3ccccc3cc2C(=O)N[C@@H](CC(N)=O)C(=O)N1`, for which it took 18 nM to reach a half-maximal effect (EC50).

In turn, `CC(C)[C@@H]1NC(=O)CCCCCOc2ccc(cc2)C[C@@H]([C@H](O)CN2CC3CCCCC3C[C@H]2C(=O)NC(C)(C)C)NC1=O` (stereo partly drawn) showed an EC50 of 8 nM.

For the compound `CC(C)[C@@H]1NC(=O)CCCCCCOc2ccc(cc2)C[C@@H]([C@H](O)CN2CC3CCCCC3C[C@H]2C(=O)NC(C)(C)C)NC1=O` (stereo partly drawn), a half-maximal effect (EC50) was put at 4 nM.

Consider `CC(C)(C)NC(=O)[C@@H]1C[C@@H]2CCCC[C@@H]2CN1C[C@@H](O)[C@@H]1Cc2ccc(cc2)OCCCOc2cc3ccccc3cc2C(=O)N[C@@H](CC(N)=O)C(=O)N1`, for which a half-maximal response (EC50) required 14 nM.

The compound `CC(C)[C@H](NC(=O)c1ccc2ccccc2c1)C(=O)N[C@@H](Cc1ccccc1)[C@H](O)CN1CC2CCCCC2C[C@H]1C(=O)NC(C)(C)C` (stereo partly drawn) came in with an EC50 of 8 nM.

`CC(=O)N[C@H](C(=O)N[C@@H](Cc1ccccc1)[C@H](O)CN1CC2CCCCC2C[C@H]1C(=O)NC(C)(C)C)C(C)C` (stereo partly drawn) returned an EC50 of 29 nM.
